Measurements taken from ChEMBL document CHEMBL3045068, “Effect of methomyl and oxamyl soil applications on early control of nematodes and insects” (Pest Manag Sci, 2011).
In brackets after ≈: the same amount, converted by molar mass.

Key:
Pisum sativum [1] = experiment: Phytotoxicity in Pisum sativum (pea) assessed as emergence at 2 kg ai/ha applied to soil measured up to 7 days post planting at 27 degC under green house conditions (reference value: 70 +/- 3.3%); assay type: organism-based; conditions: lathyrus oleraceus, in vivo, other, 168 h
Meloidogyne incognita [2] = experiment: Nematicidal activity against second juvenile stage of Meloidogyne incognita (root-knot nematode) infected lima bean plant assessed as root dry weight at 2 kg ai/ha applied to soil measured up to 7 days post planting under green house conditions (reference value: 0.5 +/- 0.052 g); assay type: functional
Trichoplusia ni = experiment: Insecticidal activity against Trichoplusia ni (cabbage looper) infested cabbage assessed as mortality applied to soil after 72 hr; assay type: functional
Pisum sativum [3] = experiment: Phytotoxicity in Pisum sativum (pea) assessed as plant height at 4 kg ai/ha applied to soil measured up to 7 days post planting at 19 degC (reference value: 6.2 +/- 0.6 cm); assay type: organism-based; conditions: lathyrus oleraceus, in vivo, other, 168 h
Phaseolus lunatus [4] = experiment: Phytotoxicity in Phaseolus lunatus (lima bean) plant assessed as plant dry weight at 2.12 kg ai/ha applied to soil measured up to 7 days under green house conditions (reference value: 1.20 +/- 0.21 g); assay type: organism-based; conditions: in vivo, other, 168 h
Pisum sativum [5] = experiment: Phytotoxicity in Pisum sativum (pea) assessed as root dry weight at 2 kg ai/ha applied to soil measured up to 7 days post planting at 27 degC under green house conditions (reference value: 0.33 +/- 0.075 g); assay type: organism-based; conditions: lathyrus oleraceus, in vivo, other, 168 h
Pisum sativum [6] = experiment: Phytotoxicity in Pisum sativum (pea) assessed as plant height at 2 kg ai/ha applied to soil measured up to 7 days post planting at 27 degC under green house conditions (reference value: 9.6 +/- 1.5 cm); assay type: organism-based; conditions: lathyrus oleraceus, in vivo, other, 168 h
Phaseolus lunatus [7] = experiment: Phytotoxicity in Phaseolus lunatus (lima bean) plant assessed as emergence at 2.12 kg ai/ha applied to soil measured up to 7 days under green house conditions (reference value: 70 +/- 16%); assay type: organism-based; conditions: in vivo, other, 168 h
Pisum sativum [8] = experiment: Phytotoxicity in Pisum sativum (pea) assessed as plant height at 4 kg ai/ha applied to soil measured up to 7 days post planting at 27 degC under green house conditions (reference value: 9.6 +/- 1.5 cm); assay type: organism-based; conditions: lathyrus oleraceus, in vivo, other, 168 h
Meloidogyne incognita [9] = experiment: Nematicidal activity against second juvenile stage of Meloidogyne incognita (root-knot nematode) infected lima bean plant assessed as reduction in root gall index at 4 kg ai/ha applied to soil measured up to 14 days post planting under green house conditions (reference value: 7 +/- 0.27%); assay type: functional
Meloidogyne incognita [10] = experiment: Nematicidal activity against second juvenile stage of Meloidogyne incognita (root-knot nematode) infected lima bean plant assessed as shoot dry weight at 4 kg ai/ha applied to soil measured up to 14 days post planting under green house conditions (reference value: 1.84 +/- 0.18 g); assay type: functional
Meloidogyne incognita [11] = experiment: Nematicidal activity against second juvenile stage of Meloidogyne incognita (root-knot nematode) infected pea plant assessed as reduction in root gall index at 4 kg ai/ha applied to soil measured up to 14 days post planting under green house conditions (reference value: 9.7 +/- 0.30%); assay type: functional
Meloidogyne incognita [12] = experiment: Nematicidal activity against second juvenile stage of Meloidogyne incognita (root-knot nematode) infected lima bean plant assessed as reduction in root gall index at 2 kg ai/ha applied to soil measured up to 7 days post planting under green house conditions (reference value: 7 +/- 0.27%); assay type: functional
Meloidogyne incognita [13] = experiment: Nematicidal activity against second juvenile stage of Meloidogyne incognita (root-knot nematode) assessed as mortality at 20 mg ai/L after 48 to 72 hr relative to control; assay type: functional
Meloidogyne incognita [14] = experiment: Nematicidal activity against second juvenile stage of Meloidogyne incognita (root-knot nematode) infected lima bean plant assessed as root dry weight at 4 kg ai/ha applied to soil measured up to 14 days post planting under green house conditions (reference value: 0.5 +/- 0.052 g); assay type: functional
Myzus persicae = experiment: Insecticidal activity against Myzus persicae (green peach aphid) infested tomato assessed as mortality applied to soil after 5 days; assay type: functional
Phaseolus lunatus [15] = experiment: Phytotoxicity in Phaseolus lunatus (lima bean) plant assessed as emergence at 1.12 kg ai/ha applied to soil under green house conditions (reference value: 70 +/- 16%); assay type: organism-based; conditions: in vivo, other
Phaseolus lunatus [16] = experiment: Phytotoxicity in Phaseolus lunatus (lima bean) plant assessed as emergence at 1.56 kg ai/ha applied to soil measured up to 7 days under green house conditions (reference value: 70 +/- 16%); assay type: organism-based; conditions: in vivo, other, 168 h
Meloidogyne incognita [17] = experiment: Nematicidal activity against second juvenile stage of Meloidogyne incognita (root-knot nematode) infected pea plant assessed as root fresh weight at 4 kg ai/ha applied to soil measured up to 14 days post planting under green house conditions (reference value: 4.3 +/- 0.56 g); assay type: functional
Meloidogyne incognita [18] = experiment: Nematicidal activity against second juvenile stage of Meloidogyne incognita (root-knot nematode) infected pea plant assessed as emergence at 4 kg ai/ha applied to soil measured up to 7 days post planting under green house conditions (reference value: 75 +/- 13%); assay type: functional
[19] = test system: Frankliniella occidentalis; experiment: Insecticidal activity against Frankliniella occidentalis (western flower thrips) infested beans assessed as mortality applied to soil after 7 days; assay type: functional
Meloidogyne incognita [20] = experiment: Nematicidal activity against second juvenile stage of Meloidogyne incognita (root-knot nematode) infected pea plant assessed as plant fresh weight at 3 kg ai/ha applied to soil measured up to 14 days post planting under green house conditions (reference value: 4.3 +/- 0.56 g); assay type: functional
Spodoptera exigua = experiment: Insecticidal activity against Spodoptera exigua infested tomato assessed as mortality applied to soil after 72 hr; assay type: functional
Meloidogyne incognita [21] = experiment: Nematicidal activity against second juvenile stage of Meloidogyne incognita (root-knot nematode) infected lima bean plant assessed as shoot dry weight at 2 kg ai/ha applied to soil measured during planting under green house conditions (reference value: 1.84 +/- 0.18 g); assay type: functional
Meloidogyne incognita [22] = experiment: Nematicidal activity against second juvenile stage of Meloidogyne incognita (root-knot nematode) infected pea plant assessed as reduction in root gall index at 4 kg ai/ha applied to soil measured up to 7 days post planting under green house conditions (reference value: 9.7 +/- 0.30%); assay type: functional
Meloidogyne incognita [23] = experiment: Nematicidal activity against second juvenile stage of Meloidogyne incognita (root-knot nematode) infected lima bean plant assessed as shoot dry weight at 1 kg ai/ha applied to soil measured during planting under green house conditions (reference value: 1.84 +/- 0.18 g); assay type: functional
Meloidogyne incognita [24] = experiment: Nematicidal activity against second juvenile stage of Meloidogyne incognita (root-knot nematode) assessed as mortality after 48 hr; assay type: functional
Phaseolus lunatus [25] = experiment: Phytotoxicity in Phaseolus lunatus (lima bean) plant assessed as emergence at 3.12 kg ai/ha applied to soil measured up to 14 days under green house conditions (reference value: 70 +/- 16%); assay type: organism-based; conditions: in vivo, other, 336 h
Phaseolus lunatus [26] = experiment: Phytotoxicity in Phaseolus lunatus (lima bean) plant assessed as plant dry weight at 3.12 kg ai/ha applied to soil measured up to 14 days under green house conditions (reference value: 1.20 +/- 0.21 g); assay type: organism-based; conditions: in vivo, other, 336 h
Bemisia tabaci = experiment: Insecticidal activity against second-instar […] stage of Bemisia tabaci (sweet potato whitefly) infested cotton assessed as mortality applied through foliar spray after 6 days; assay type: functional

CNC(=O)ON=C(C)SC [METHOMYL]
Activity (Pisum sativum [1]): 50%
Activity (Meloidogyne incognita [2]): 0.38 g
LC90 (Trichoplusia ni): 547 µg/mL (≈ 3370 µM)
LC50 (Trichoplusia ni; Trichoplusia ni, soil, 72 h): 100 µg/mL (≈ 616 µM)
Activity (Pisum sativum [3]): 6.3 cm
Activity (Phaseolus lunatus [4]): 0.66 g
Activity (Pisum sativum [5]): 0.16 g
Activity (Pisum sativum [6]): 7.1 cm
Activity (Phaseolus lunatus [7]): 80%
Activity (Pisum sativum [8]): 9.1 cm
Root_galling_index (Meloidogyne incognita [9]): 0%
Activity (Meloidogyne incognita [10]): 1.02 g
Root_galling_index (Meloidogyne incognita [11]): 0%
Root_galling_index (Meloidogyne incognita [12]): 0%
mortality at 20 µg/mL (Meloidogyne incognita [13]): 95%
Activity (Meloidogyne incognita [14]): 0.27 g
LC90 (Myzus persicae): 11 µg/mL (≈ 67.8 µM)
LC50 (Myzus persicae; Myzus persicae, soil, 120 h): 1 µg/mL (≈ 6.16 µM)
Activity (Phaseolus lunatus [15]): 80%
Activity (Phaseolus lunatus [16]): 80%
Activity (Meloidogyne incognita [17]): 5.5 g
Activity (Meloidogyne incognita [18]): 88%
LC90 [19]: 36 µg/mL (≈ 222 µM)
LC50 ([19]; Frankliniella occidentalis, soil, 168 h): 22 µg/mL (≈ 136 µM)
Activity (Meloidogyne incognita [20]): 5.2 g
LC90 (Spodoptera exigua): 30 µg/mL (≈ 185 µM)
LC50 (Spodoptera exigua; Spodoptera exigua, soil, 72 h): 18 µg/mL (≈ 111 µM)
Activity (Meloidogyne incognita [21]): 1.59 g
Root_galling_index (Meloidogyne incognita [22]): 0%
Activity (Meloidogyne incognita [23]): 1.79 g
LC90 (Meloidogyne incognita [24]): 15.2 mg/L (≈ 93.7 µM)
LC50 (Meloidogyne incognita [24]; Meloidogyne incognita, Juvenile stage, 48 h): 4.9 µg/mL (≈ 30.2 µM)
Activity (Phaseolus lunatus [25]): 60%
Activity (Phaseolus lunatus [26]): 0.87 g
LC90 (Bemisia tabaci): 1589 µg/mL (≈ 9800 µM)
LC50 (Bemisia tabaci; Bemisia tabaci, foliar, 144 h): 203 µg/mL (≈ 1250 µM)
